Data reported in ChEMBL document CHEMBL1201862, “PubChem BioAssay data set” (2004).
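Protocol summary: plate cells (96-well), add compound at 5 concentrations, incubate 48 h, interpolate endpoints linearly. GI50 = concentration required for 50% inhibition of growth.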 Active and inactive are the calls of the source. No stated cut-off is given here; in the data, active = GI50 up to about 1.1 µM and inactive = higher.

What was measured:
Test in all cases: NCI-60 cell line screen, 48 h
KM-20L2 = system: KM-20L2
M19-MEL = system: M19-MEL
DMS-114 = system: DMS-114
DMS-273 = system: DMS-273
DLD-1 = system: DLD-1
HOP-18 = system: HOP-18
SNB-78 = system: SNB-78
XF498 = system: XF498
RXF 631 = system: RXF 631

SMILES: CN1C(=O)CN2C(Cl)(Cl)C2(c2ccccc2F)c2cc([N+](=O)[O-])ccc21 (stereo not drawn)
- GI50 (KM-20L2): 26.7 µM (inactive)
- GI50 (M19-MEL): 65.6 µM (inactive)
- GI50 (DMS-114): 42.8 µM (inactive)
- GI50 (DMS-273): 39.4 µM (inactive)
- GI50 (DLD-1): 35.1 µM (inactive)

SMILES: O=[N+]([O-])c1ccc(C2SCc3nc4ccccc4n32)cc1 (stereo not drawn)
- GI50 (HOP-18): 88.3 µM (inactive)
- GI50 (SNB-78): > 100 µM (inactive)
- GI50 (KM-20L2): > 100 µM (inactive)
- GI50 (M19-MEL): 81.8 µM (inactive)
- GI50 (XF498): 12.3 µM (inactive)
- GI50 (DMS-114): 35.1 µM (inactive)
- GI50 (RXF 631): > 100 µM (inactive)
- GI50 (DMS-273): 54.1 µM (inactive)
- GI50 (DLD-1): 89.7 µM (inactive)

SMILES: COc1ccc(OC)c2c1CC(C(=O)O)(C(=O)O)CC2=O
- GI50 (SNB-78): > 100 µM (inactive)
- GI50 (KM-20L2): > 100 µM (inactive)
- GI50 (DMS-114): > 100 µM (inactive)

SMILES: CC(C)N(C(=O)C12C3C4C1C1C4(C#N)C3C12C#N)C(C)C (stereo not drawn)
- GI50 (HOP-18): > 100 µM (inactive)
- GI50 (SNB-78): > 100 µM (inactive)
- GI50 (KM-20L2): > 100 µM (inactive)
- GI50 (M19-MEL): > 100 µM (inactive)
- GI50 (XF498): > 100 µM (inactive)
- GI50 (DMS-114): > 100 µM (inactive)
- GI50 (RXF 631): > 100 µM (inactive)
- GI50 (DLD-1): > 100 µM (inactive)

SMILES: CC(=O)N/C(=C\c1ccccc1/C=C(\NC(C)=O)c1nc2cc(C)c(C)cc2[nH]1)c1nc2cc(C)c(C)cc2[nH]1
- GI50 (SNB-78): 10.7 µM (inactive)
- GI50 (KM-20L2): 29.4 µM (inactive)
- GI50 (M19-MEL): 10.7 µM (inactive)
- GI50 (XF498): 15.6 µM (inactive)
- GI50 (DMS-114): 0.23 µM (active)
- GI50 (DMS-273): 2.56 µM (inactive)
- GI50 (DLD-1): 19.2 µM (inactive)

SMILES: C=CCC12CC(=O)CCC1CC(=O)C2 (stereo not drawn)
- GI50 (HOP-18): > 100 µM (inactive)
- GI50 (SNB-78): > 100 µM (inactive)
- GI50 (KM-20L2): > 100 µM (inactive)
- GI50 (M19-MEL): > 100 µM (inactive)
- GI50 (DMS-114): > 100 µM (inactive)
- GI50 (DMS-273): > 100 µM (inactive)
- GI50 (DLD-1): > 100 µM (inactive)

SMILES: CC(/C=C/c1ncccc1OCCCCCC(=O)O)=N\NC1=NCCN1
- GI50 (KM-20L2): > 100 µM (inactive)
- GI50 (M19-MEL): > 100 µM (inactive)
- GI50 (XF498): > 100 µM (inactive)
- GI50 (DMS-114): > 100 µM (inactive)
- GI50 (DMS-273): > 100 µM (inactive)
- GI50 (DLD-1): > 100 µM (inactive)

SMILES: CCOC(=O)C1=C(C)N(NC(=O)OC)C2(N)N(NC(=O)OC)C(C)=C(C(=O)OCC)C12C#N (stereo not drawn)
- GI50 (KM-20L2): > 100 µM (inactive)
- GI50 (M19-MEL): > 100 µM (inactive)
- GI50 (XF498): > 100 µM (inactive)
- GI50 (DMS-114): > 100 µM (inactive)
- GI50 (DMS-273): > 100 µM (inactive)
- GI50 (DLD-1): > 100 µM (inactive)

SMILES: COc1ccc(C(=O)C(C(=O)CCC(=O)Nc2cccc(C(F)(F)F)c2)c2ccccc2)cc1 (stereo not drawn)
- GI50 (HOP-18): > 100 µM (inactive)
- GI50 (SNB-78): > 100 µM (inactive)
- GI50 (KM-20L2): > 100 µM (inactive)
- GI50 (M19-MEL): 67.5 µM (inactive)
- GI50 (XF498): 54.1 µM (inactive)
- GI50 (DMS-114): 36.2 µM (inactive)
- GI50 (DMS-273): > 100 µM (inactive)
- GI50 (DLD-1): > 100 µM (inactive)

SMILES: C[C@H](NC(=O)OC1C2C=CC(O)C1CC2)c1ccccc1 (stereo partly drawn)
- GI50 (HOP-18): > 100 µM (inactive)
- GI50 (SNB-78): > 100 µM (inactive)
- GI50 (KM-20L2): 45.3 µM (inactive)
- GI50 (XF498): > 100 µM (inactive)
- GI50 (DMS-114): 60.8 µM (inactive)
- GI50 (DMS-273): 24.4 µM (inactive)
- GI50 (DLD-1): 89.1 µM (inactive)

SMILES: Cc1ccc(C2C(Cl)C(=O)N2n2cnc3ccccc3c2=O)cc1 (stereo not drawn)
- GI50 (HOP-18): 18.1 µM (inactive)
- GI50 (SNB-78): > 100 µM (inactive)
- GI50 (KM-20L2): > 100 µM (inactive)
- GI50 (M19-MEL): > 100 µM (inactive)
- GI50 (XF498): > 100 µM (inactive)
- GI50 (DMS-114): > 100 µM (inactive)
- GI50 (DMS-273): > 100 µM (inactive)
- GI50 (DLD-1): > 100 µM (inactive)

SMILES: O=NN(CCCl)C(=O)N[C@H]1CC[C@@H](CC(=O)O)CC1
- GI50 (HOP-18): > 100 µM (inactive)
- GI50 (SNB-78): > 100 µM (inactive)
- GI50 (KM-20L2): > 100 µM (inactive)
- GI50 (M19-MEL): > 100 µM (inactive)
- GI50 (XF498): > 100 µM (inactive)
- GI50 (DMS-114): > 100 µM (inactive)
- GI50 (DMS-273): > 100 µM (inactive)
- GI50 (DLD-1): > 100 µM (inactive)

SMILES: c1ccc(/N=c2\snc3scc(-c4ccccc4)n23)cc1
- GI50 (HOP-18): 24.8 µM (inactive)
- GI50 (SNB-78): 57.3 µM (inactive)
- GI50 (M19-MEL): 32.3 µM (inactive)
- GI50 (XF498): 32.1 µM (inactive)
- GI50 (DMS-114): 30.3 µM (inactive)
- GI50 (RXF 631): 66.8 µM (inactive)
- GI50 (DMS-273): 38.8 µM (inactive)
- GI50 (DLD-1): 36.9 µM (inactive)

SMILES: O=C(c1ccccc1)c1ccc2cccc(OC3OC(CO)C(O)C(O)C3O)c2n1 (stereo not drawn)
- GI50 (HOP-18): > 100 µM (inactive)
- GI50 (SNB-78): > 100 µM (inactive)
- GI50 (KM-20L2): > 100 µM (inactive)
- GI50 (XF498): > 100 µM (inactive)
- GI50 (DMS-114): > 100 µM (inactive)
- GI50 (DMS-273): > 100 µM (inactive)
- GI50 (DLD-1): > 100 µM (inactive)

SMILES: COc1ccc(C2S/C(=C\c3ccc(O)cc3)C(=O)N2NC(=O)Cc2ccccc2)cc1 (stereo not drawn)
- GI50 (HOP-18): > 100 µM (inactive)
- GI50 (M19-MEL): > 100 µM (inactive)
- GI50 (DMS-114): > 100 µM (inactive)
- GI50 (DMS-273): > 100 µM (inactive)
- GI50 (DLD-1): > 100 µM (inactive)

SMILES: CCNC1=Nc2ccccc2-n2c(nn3nc4ccccc4c23)N1CC
- GI50 (HOP-18): > 100 µM (inactive)
- GI50 (KM-20L2): > 100 µM (inactive)
- GI50 (M19-MEL): > 100 µM (inactive)
- GI50 (DMS-114): 89.3 µM (inactive)
- GI50 (DMS-273): > 100 µM (inactive)
- GI50 (DLD-1): > 100 µM (inactive)

SMILES: O=C(/C=C/C1C(=O)NC(=O)NC1=O)CC(=O)C(=O)Nc1cc(Cl)c(Cl)cc1Cl
- GI50 (HOP-18): > 100 µM (inactive)
- GI50 (SNB-78): > 100 µM (inactive)
- GI50 (KM-20L2): > 100 µM (inactive)
- GI50 (M19-MEL): > 100 µM (inactive)
- GI50 (XF498): > 100 µM (inactive)
- GI50 (DMS-114): > 100 µM (inactive)
- GI50 (DMS-273): > 100 µM (inactive)
- GI50 (DLD-1): > 100 µM (inactive)

SMILES: CC1OC(OCC2OC(Oc3c(-c4ccc(O)cc4)oc4cc(O)cc(O)c4c3=O)C(OC3OC(C)C(O)C(O)C3O)C(O)C2O)C(O)C(O)C1O (stereo not drawn)
- GI50 (HOP-18): > 100 µM (inactive)
- GI50 (SNB-78): > 100 µM (inactive)
- GI50 (KM-20L2): > 100 µM (inactive)
- GI50 (M19-MEL): > 72.4 µM (inactive)
- GI50 (XF498): > 100 µM (inactive)
- GI50 (DMS-114): > 53.7 µM (inactive)
- GI50 (RXF 631): > 100 µM (inactive)
- GI50 (DMS-273): > 84.1 µM (inactive)
- GI50 (DLD-1): > 100 µM (inactive)

SMILES: O=C(O)CNS(=O)(=O)c1ccc(NC(=O)c2ccc([N+](=O)[O-])cc2)cc1
- GI50 (HOP-18): > 100 µM (inactive)
- GI50 (KM-20L2): > 100 µM (inactive)
- GI50 (M19-MEL): > 100 µM (inactive)
- GI50 (XF498): > 100 µM (inactive)
- GI50 (RXF 631): > 100 µM (inactive)
- GI50 (DMS-273): > 100 µM (inactive)
- GI50 (DLD-1): > 100 µM (inactive)

SMILES: C[C@@H]1CC2(C[C@@H](C)C3[C@@H](CC4(C)CCCC5C6=CC(O)(CC[C@]34C)OC6=CC(=O)OC5(C)C)O2)OC1=O (stereo partly drawn)
- GI50 (HOP-18): > 100 µM (inactive)
- GI50 (XF498): > 100 µM (inactive)
- GI50 (DMS-114): > 100 µM (inactive)
- GI50 (DMS-273): > 100 µM (inactive)
- GI50 (DLD-1): > 100 µM (inactive)

SMILES: OCC1O[C@H](O[C@@H]2CCCN3CC(O)C(O)[C@@H]23)C(O)C(O)C1O (stereo partly drawn)
- GI50 (HOP-18): > 100 µM (inactive)
- GI50 (SNB-78): > 100 µM (inactive)
- GI50 (KM-20L2): > 100 µM (inactive)
- GI50 (M19-MEL): > 100 µM (inactive)
- GI50 (RXF 631): > 100 µM (inactive)
- GI50 (DMS-273): > 100 µM (inactive)
- GI50 (DLD-1): > 100 µM (inactive)

SMILES: COc1cc(C2c3cc4c(cc3[C@@H](Nc3ccc(C(=O)O)cc3)C3COC(=O)[C@H]23)OCO4)cc(OC)c1O (stereo partly drawn)
- GI50 (SNB-78): 10.7 µM (inactive)
- GI50 (M19-MEL): 15.7 µM (inactive)
- GI50 (DMS-273): 7.16 µM (inactive)

SMILES: CCC(=O)O[C@@H]1C2C(OC(C)=O)C34COC(C)([C@@H]3C3C(C[C@]3(C)OC(C)=O)[C@@H](OC(=O)c3ccccc3)C4=O)[C@H](OC(C)=O)[C@@]2(OC(C)=O)C[C@@H]1C (stereo partly drawn)
- GI50 (HOP-18): > 100 µM (inactive)
- GI50 (SNB-78): 5.5 µM (inactive)
- GI50 (KM-20L2): > 100 µM (inactive)
- GI50 (M19-MEL): 32.8 µM (inactive)
- GI50 (DMS-114): 23.3 µM (inactive)
- GI50 (RXF 631): 86.1 µM (inactive)
- GI50 (DMS-273): 44.1 µM (inactive)
- GI50 (DLD-1): > 100 µM (inactive)

SMILES: COC[C@@H]1Cc2cc(OC)c3c(c2[C@H](c2ccc(OC)c(OC)c2)[C@H]1COC)OCO3 [HYPOPHYLLANTHIN]
- GI50 (HOP-18): > 100 µM (inactive)
- GI50 (KM-20L2): > 100 µM (inactive)
- GI50 (M19-MEL): > 100 µM (inactive)
- GI50 (XF498): 19.1 µM (inactive)
- GI50 (DMS-114): > 100 µM (inactive)
- GI50 (RXF 631): > 100 µM (inactive)
- GI50 (DMS-273): > 100 µM (inactive)
- GI50 (DLD-1): 47.3 µM (inactive)
